Source: ChEMBL document CHEMBL1201862, “PubChem BioAssay data set” (2004)
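Results reflect a 48-hour exposure of cells in 96-well plates to compound at five concentrations. Here, GI50 denotes the concentration required for 50% inhibition of growth.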 Calls of active or inactive are those of the source. No stated cut-off is given here; in the data, active = GI50 up to about 1.1 µM and inactive = higher.

How the values were obtained:
Assay in all cases: NCI anticancer screen, dose series, 48 h
[1] = test system: OVCAR-5
[2] = test system: SR
[3] = test system: COLO 205
[4] = test system: OVCAR-3
[5] = test system: K562
[6] = test system: HOP-62
[7] = test system: Malme-3M
[8] = test system: RPMI-8226
[9] = test system: NCI-H226
[10] = test system: SNB-19
[11] = test system: OVCAR-8
[12] = test system: SK-OV-3
[13] = test system: SK-MEL-2
[14] = test system: M14
[15] = test system: DU-145
[16] = test system: MDA-N
[17] = test system: MCF7
[18] = test system: PC-3

Measured: GI50

S=P(N1CCCC1)(N1CC1)N1CC1
inactive: [1] > 100 µM | [2] 83.8 µM | [3] > 100 µM | [4] > 100 µM | [5] > 100 µM | [6] > 100 µM | [7] > 100 µM | [8] > 100 µM | [9] > 100 µM | [10] 84.1 µM | [11] > 100 µM | [12] > 100 µM | [13] > 100 µM | [14] > 100 µM

NC1=NN(c2ccccc2)C(=O)C1C(=O)CCC(=O)Nc1cccc(C(F)(F)F)c1 (stereo not given)
inactive: [1] > 100 µM | [2] > 100 µM | [3] > 100 µM | [4] > 100 µM | [5] 35.2 µM | [6] > 100 µM | [7] > 100 µM | [9] > 100 µM | [10] > 100 µM | [11] > 100 µM | [12] > 100 µM | [13] > 100 µM | [14] 41.2 µM

C/C(CN1C(=O)c2ccccc2C1=O)=N\NS(=O)(=O)c1ccc(Br)cc1
inactive: [1] > 100 µM | [3] > 100 µM | [4] > 100 µM | [5] > 100 µM | [6] > 100 µM | [7] > 100 µM | [8] > 100 µM | [9] > 100 µM | [10] > 100 µM | [11] > 100 µM | [12] > 100 µM | [13] > 100 µM | [14] > 100 µM

CC1=CC2C(=O)N(c3ccccc3)C(=O)C2CC1n1[nH]c(=O)n(Cc2ccccc2)c1=O (stereo not given)
inactive: [1] > 100 µM | [2] > 100 µM | [3] > 100 µM | [4] > 100 µM | [5] > 100 µM | [6] > 100 µM | [7] > 100 µM | [9] > 100 µM | [10] > 100 µM | [11] > 100 µM | [12] > 100 µM | [13] > 100 µM | [14] > 100 µM

N#CC(NNC(=O)c1ccccc1O)c1ccc(O)cc1 (stereo not given)
inactive: [1] 17.6 µM | [2] 2.8 µM | [3] 29.2 µM | [4] 9.55 µM | [5] 3.1 µM | [6] 22.5 µM | [7] 29.6 µM | [8] 10.2 µM | [9] 3.21 µM | [11] 7.66 µM | [12] 6.44 µM | [13] 2.67 µM | [14] 6.93 µM

CC(C)(C)/N=C1/CC(C)(C)c2ccccc2/C(=N\c2ccccc2)S1
inactive: [1] 37.9 µM | [3] 23.3 µM | [4] 33.1 µM | [5] 26.4 µM | [6] 44.7 µM | [7] 27.9 µM | [8] 11.2 µM | [9] 47.3 µM | [10] 36.2 µM | [11] 41.8 µM | [12] 57 µM | [13] 34.4 µM | [14] 39.5 µM

O=C(CC(=O)n1nc(-c2ccccc2)c(/N=N/c2ccccc2Cl)c1-c1ccccc1)Nc1ccc(Cl)cc1
inactive: [1] > 100 µM | [2] > 100 µM | [3] > 44.5 µM | [4] > 100 µM | [5] > 53.1 µM | [6] > 100 µM | [7] > 100 µM | [8] > 49.3 µM | [9] > 100 µM | [10] > 100 µM | [11] > 100 µM | [12] > 100 µM | [13] > 100 µM | [14] > 100 µM

Cc1nc2ccccc2nc1NS(=O)(=O)c1ccc(N)cc1
inactive: [1] > 100 µM | [2] > 100 µM | [3] > 100 µM | [4] > 100 µM | [5] > 100 µM | [6] > 100 µM | [7] > 100 µM | [8] > 100 µM | [9] > 100 µM | [10] > 100 µM | [11] > 100 µM | [13] > 100 µM | [14] > 100 µM

Cc1ccc(C2=C(c3ccccc3)C(Br)(c3ccccc3)C(c3ccccc3)=C2c2ccc(C)cc2)cc1
inactive: [1] > 100 µM | [3] > 100 µM | [4] > 100 µM | [5] > 100 µM | [6] > 100 µM | [7] > 100 µM | [8] > 100 µM | [9] > 100 µM | [10] > 100 µM | [11] > 100 µM | [12] > 100 µM | [13] > 100 µM | [14] > 100 µM

N#CCCC(C#N)(C#N)CCC#N
inactive: [2] > 100 µM | [3] > 100 µM | [4] > 100 µM | [5] > 100 µM | [6] > 100 µM | [7] > 100 µM | [8] > 100 µM | [9] > 100 µM | [10] > 100 µM | [11] > 100 µM | [12] > 100 µM | [14] > 100 µM

COC(=O)c1c(C(=O)OC)c2ccc(-c3ccc(Cl)cc3)nn2c1C(=O)c1ccc([N+](=O)[O-])cc1
inactive: [1] > 100 µM | [15] > 100 µM | [3] 27.3 µM | [4] 43.5 µM | [5] 14.2 µM | [16] 66.2 µM | [6] > 100 µM | [8] 16.7 µM | [9] > 100 µM | [10] > 100 µM | [11] 36.2 µM | [12] > 100 µM | [13] 34.8 µM | [14] 40.6 µM | [17] 40.2 µM | [18] > 100 µM

Nc1nc(O)c([N+](=O)[O-])c(NCCOCP(=O)(O)O)n1
inactive: [2] > 100 µM | [3] > 100 µM | [4] > 100 µM | [5] > 100 µM | [6] > 100 µM | [7] > 100 µM | [8] > 100 µM | [9] > 100 µM | [10] > 100 µM | [11] > 100 µM | [12] > 100 µM | [13] > 100 µM | [14] > 100 µM

CC(C)C(Sc1nc(-c2ccccc2)c(-c2ccccc2)[nH]1)C(=O)N/N=C/c1ccc(Cl)cc1 (stereo not given)
inactive: [1] 22.6 µM | [2] 32.4 µM | [3] 17.7 µM | [4] 18.2 µM | [6] 23.2 µM | [7] 23.7 µM | [8] 19.7 µM | [9] 17.2 µM | [10] 36.9 µM | [11] 19.7 µM | [12] 27.2 µM | [13] 17.5 µM | [14] 17.7 µM

CO/S(=N/S(=O)(=O)c1ccccc1)c1ccccc1[N+](=O)[O-] (stereo not given)
inactive: [1] > 100 µM | [2] > 100 µM | [3] > 100 µM | [4] > 100 µM | [5] > 100 µM | [6] > 100 µM | [7] > 100 µM | [8] > 100 µM | [9] > 100 µM | [10] > 100 µM | [11] > 100 µM | [12] > 100 µM | [13] > 100 µM | [14] > 100 µM

O=C(c1ccc([N+](=O)[O-])cc1[N+](=O)[O-])N(/N=C/C=C/c1ccccc1)c1nnc(-c2ccccc2)c(-c2ccccc2)n1
inactive: [1] > 100 µM | [3] 41.6 µM | [4] 21 µM | [5] 20.1 µM | [6] 86.1 µM | [7] 43.8 µM | [8] 20.5 µM | [9] 32.7 µM | [10] 94.4 µM | [11] 22.7 µM | [12] 74.8 µM | [13] 31 µM | [14] 30.6 µM

O=c1[nH]c(=O)n(C2CC(O)C(CO)O2)cc1COCC(F)(F)F (stereo not given)
inactive: [1] > 100 µM | [3] > 100 µM | [4] > 100 µM | [5] > 100 µM | [6] > 100 µM | [7] > 100 µM | [8] > 100 µM | [10] > 100 µM | [11] > 100 µM | [12] > 100 µM | [13] > 100 µM | [14] > 100 µM

O=C(Nc1cc(Cl)ccc1Cl)c1cc2ccccc2oc1=O
inactive: [3] > 100 µM | [4] 77.6 µM | [5] > 100 µM | [6] 45.6 µM | [7] 18 µM | [8] > 100 µM | [11] 88.3 µM | [12] 38.9 µM | [13] > 100 µM | [14] > 100 µM

CCP(C)(=O)CC
inactive: [1] > 100 µM | [2] > 100 µM | [3] > 100 µM | [4] > 100 µM | [5] > 100 µM | [6] > 100 µM | [7] > 100 µM | [8] > 100 µM | [9] > 100 µM | [10] > 100 µM | [11] > 100 µM | [12] > 100 µM | [13] > 100 µM | [14] > 100 µM

O=C1C[C@H]2CC3(CC[C@H]2CN1)OCCO3
inactive: [3] > 100 µM | [4] > 100 µM | [5] > 100 µM | [6] > 100 µM | [7] > 100 µM | [8] > 100 µM | [10] > 100 µM | [11] > 100 µM | [12] > 100 µM | [13] > 100 µM | [14] > 100 µM

c1ccc(SCCCC(Sc2ccccc2)Sc2ccccc2)cc1
inactive: [2] > 100 µM | [3] > 100 µM | [4] > 100 µM | [5] > 100 µM | [6] > 100 µM | [8] > 100 µM | [10] > 100 µM | [11] > 100 µM | [12] > 100 µM | [13] > 100 µM | [14] > 100 µM

Cc1ccccc1C(=O)c1ccccc1O
inactive: [1] > 100 µM | [3] > 100 µM | [4] > 100 µM | [5] > 100 µM | [6] > 100 µM | [7] > 100 µM | [9] > 100 µM | [10] > 100 µM | [11] > 100 µM | [12] > 100 µM | [13] > 100 µM | [14] > 100 µM
